Experimental data from patent US7205403B2, “8-Heteroaryl xanthine adenosine A2B receptor antagonists” (King Pharmaceuticals Research and Development, Inc., priority 2002, dated 2007).

Experiments:
[1] = target: T1, human A2A adenosine receptor (Homo sapiens, UniProt P29274); assay: [3H]ZM241385 binding to human A2A receptors expressed in CHO cells; settings: read-out: Ki, [3H]ZM241385 binding to human A2A receptors expressed in CHO cells
T1 construct: expressed in transfected cells; host or cells: CHO cells (membranes)
T1 sequence (P29274 whole entry): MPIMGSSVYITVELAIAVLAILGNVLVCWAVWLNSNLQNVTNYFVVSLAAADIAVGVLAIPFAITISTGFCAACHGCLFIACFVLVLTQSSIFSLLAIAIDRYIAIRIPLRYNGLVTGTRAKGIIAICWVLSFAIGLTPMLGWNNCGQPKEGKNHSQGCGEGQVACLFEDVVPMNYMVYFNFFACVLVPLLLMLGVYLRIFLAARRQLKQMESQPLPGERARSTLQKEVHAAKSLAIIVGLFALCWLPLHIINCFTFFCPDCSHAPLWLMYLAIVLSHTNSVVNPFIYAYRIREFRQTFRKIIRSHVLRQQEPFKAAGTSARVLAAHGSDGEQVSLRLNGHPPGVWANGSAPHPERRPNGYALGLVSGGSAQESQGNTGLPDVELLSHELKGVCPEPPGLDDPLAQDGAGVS
Description: (§1) The cells were grown adherently and maintained in Dulbecco's modified Eagle's medium with nutrient mixture F12 without nucleosides at 37° C. in 5% CO2/95% air. The cells were washed with phosphate-buffered saline and scraped off flasks in ice cold hypotonic buffer ([…] Tris HCl, 2 mM EDTA, pH 7.4). The cell suspension was homogenized with a Polytron and the homogenate was centrifuged for 30 minutes at 48,000 g. The resultant membrane pellet was re-suspended in 50 mM Tris HCl buffer at pH 7.4 for A1 adenosine receptors; in 50 mM Tris HCl 10 mM MgCl, at pH 7.4 for A2A adenosine receptors; in 50 mM Tris HCl, 10 mM MgCl2, 1 mM EDTA, at pH 7.4 for A3 adenosine receptors and were utilized for binding assays.
(§2) The filter bound radioactivity was counted on Top Count (efficiency 57%) with Micro-Scint 20.
(§3) The filter bound radioactivity was counted on a Top Count brand Microplate Scintillation Counter (efficiency 57%) with Micro-Scint 20. […] Inhibitory binding constant. […] Results and Discussion

[2] = target: T2, human A2B adenosine receptor (Homo sapiens, UniProt P29275); assay: [3H]DPCPX binding to human A2B receptors expressed in HEK293 cells; parameters: host or cells: HEK 293 cells (membranes); settings: geometric mean (95% confidence interval); >1000 = no appreciable binding; read-out: Ki, [3H]DPCPX binding to human A2B receptors expressed in HEK293 cells
T2 sequence (P29275 1-332): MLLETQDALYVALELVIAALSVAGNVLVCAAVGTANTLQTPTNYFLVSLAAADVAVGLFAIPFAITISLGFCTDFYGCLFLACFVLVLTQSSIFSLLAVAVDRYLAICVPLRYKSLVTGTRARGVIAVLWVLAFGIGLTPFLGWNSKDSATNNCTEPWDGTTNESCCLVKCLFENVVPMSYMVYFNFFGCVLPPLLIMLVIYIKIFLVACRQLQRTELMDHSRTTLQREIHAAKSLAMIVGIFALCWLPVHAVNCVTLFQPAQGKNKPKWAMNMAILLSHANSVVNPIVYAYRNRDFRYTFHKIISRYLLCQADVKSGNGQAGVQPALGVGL
Description: HEK 293 cells transfected with the human recombinant A2B adenosine receptor were obtained from Receptor Biology, Inc. (Beltsville, Md. USA).
Binding of 1 [^3H]-DPCPX to HEK 293 cells transfected with the human recombinant A2B adenosine receptors was performed according to the method described by Varani et al., 2000. In particular, assays were carried out for 60 minutes at 25° C. in 100 μl of […] Tris HCl buffer, […] MgCl2, 1 mM EDTA, 0.1 mM benzamidine pH 7.4, 2 IU/ml adenosine deaminase containing 40 nM [^3H]-DPCPX, diluted membranes (20 μg of protein/assay) and at least 6–8 different concentration of tested compounds.
as §2, §3

[3] = target: T3, human A3 adenosine receptor (Homo sapiens, UniProt P0DMS8); assay: [3H]MRE3008F20 binding to human A3 receptors expressed in CHO cells
T3 construct: expressed in transfected cells; host or cells: CHO cells (membranes)
T3 sequence (P0DMS8 1-318): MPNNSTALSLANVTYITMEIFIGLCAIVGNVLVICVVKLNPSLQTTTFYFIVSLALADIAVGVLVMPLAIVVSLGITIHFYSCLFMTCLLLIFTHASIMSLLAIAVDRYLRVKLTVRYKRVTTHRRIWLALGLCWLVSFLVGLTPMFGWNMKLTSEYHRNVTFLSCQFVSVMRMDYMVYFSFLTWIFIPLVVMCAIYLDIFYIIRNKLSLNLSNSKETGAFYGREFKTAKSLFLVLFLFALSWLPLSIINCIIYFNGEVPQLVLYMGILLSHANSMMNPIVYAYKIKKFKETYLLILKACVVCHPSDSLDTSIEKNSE
Description: as §1
Binding of [^3H]-MRE3008-F20 to CHO cells transfected with the human recombinant A3 adenosine receptors was performed according to Varani et al., 2000. Competition experiments were carried out in duplicate in a final volume of 250 μl in test tubes containing 1 nM [^3H]-MRE3008-F20, 50 mM Tris HCl buffer, […] MgCl2, pH 7.4 and 100 μl of diluted membranes (50 μg of protein/assay) and at least 6–8 different concentrations of examined ligands for 120 minutes at 4° C.
as §2, §3

**Q.** Which results are given for `CCCn1c(=O)c2[nH]c(-c3cc(NC(=O)Cc4ccc(CC(C)C)cc4)nn3C)nc2n(CCC)c1=O` [AS14, N-[5-(2,6-dioxo-1,3-dipropyl-2,3,6,9-tetrahydro-1H-purin-8-yl)-1-methyl-1H-pyrazol-3-yl]-2-(4-isobutylphenyl)acetamide]?
**A.** Ki [1]: > 1 µM; Ki [2]: > 1 µM; Ki [3]: > 1 µM

**Q.** Which results are given for `Cn1nc(NC(=O)Cc2ccccc2)cc1-c1nc2c([nH]1)c(=O)n(C)c(=O)n2C` [AS40, N-[5-(2,6-dioxo-1,3-dimethyl-2,3,6,9-tetrahydro-1H-purin-8-yl)-1-methyl-1H-pyrazol-3-yl]-2-phenylacetamide]?
**A.** Ki [1]: > 1 µM; Ki [2]: 0.569 µM; Ki [3]: > 1 µM

**Q.** Which Ki [1] does the source give for `CCCn1c(=O)c2[nH]c(-c3ccc(OCC(=O)Nc4ccc(I)cc4)nc3)nc2n(CCC)c1=O` [AS81, 1,3-di-n-propyl-8-{6-[(4-iodo-phenylcarbamoyl)-methoxy]-pyridin-3-yl}-xanthine] here?
**A.** Its Ki is > 1 µM.

**Q.** What about the Ki [2] of the same compound?
**A.** Its Ki is 0.108 µM.

**Q.** And the Ki [3]?
**A.** The Ki was > 1 µM.

**Q.** For `CCCn1c(=O)c2[nH]c(-c3cc(OCC(=O)Nc4ccc(N5CCOCC5)cc4)nn3C)nc2n(CCC)c1=O` [AS93, 1,3-di-n-propyl-8-{5-[(4-(morpholine-4-yl)-phenylcarbamoyl)-methoxy]-2-methyl-2H-pyrazole-3-yl}-xanthine], which Ki [1] is on record?
**A.** The Ki was > 1 µM.

**Q.** What about the Ki [2] of the same compound?
**A.** The Ki was 0.086 µM.

**Q.** And the Ki [3]?
**A.** The Ki was > 1 µM.

**Q.** Which results are given for `CCCn1c(=O)c2[nH]c(-c3cc(OCC(=O)Nc4ccc(C(=O)OCC)cc4)nn3C)nc2n(CCC)c1=O` [AS94, 1,3-di-n-propyl-8-{5-[(4-(ethoxycarbonyl)-phenylcarbamoyl)-methoxy]-2-methyl-2H-pyrazole-3-yl}-xanthine]?
**A.** Ki [1]: > 1 µM; Ki [2]: 0.032 µM; Ki [3]: > 1 µM

**Q.** Which Ki [1] does the source give for `CCCn1c(=O)c2[nH]c(-c3cc(NC(=O)Cc4ccc(O)c(OC)c4)nn3C)nc2n(CCC)c1=O` [AS58, N-[5-(2,6-dioxo-1,3-dipropyl-2,3,6,9-tetrahydro-1H-purin-8-yl)-1-methyl-1H-pyrazol-3-yl]-2-(4-hydroxy-3-methoxyphenyl)acetamide] here?
**A.** Its Ki is 1.76 µM.

**Q.** What about the Ki [2] of the same compound?
**A.** The Ki was 0.342 µM.

**Q.** What about the Ki [3] of the same compound?
**A.** Its Ki is > 1 µM.

**Q.** Which results are given for `CCCn1c(=O)c2[nH]c(-c3cc(OCC(=O)N4CCN(C)CC4)nn3C)nc2n(CCC)c1=O` [AS87, 1,3-di-n-propyl-8-{5-[2-Oxo-2-(4-methyl-piperazin-1-yl)-ethoxy]-2-methyl-2H-pyrazole-3-yl}-xanthine]?
**A.** Ki [1]: > 1 µM; Ki [2]: 0.122 µM; Ki [3]: > 1 µM

**Q.** What does the source list for `CCCn1c(=O)c2[nH]c(-c3ccc(OCC(=O)Nc4ccc(I)cc4)nn3)nc2n(CCC)c1=O` [AS85, 1,3-di-n-propyl-8-{6-[(4-iodo-phenylcarbamoyl)-methoxy]-pyridazin-3-yl}-xanthine]?
**A.** Ki [1]: > 1 µM; Ki [2]: > 1 µM; Ki [3]: > 1 µM

**Q.** `CCCn1c(=O)c2[nH]c(-c3cc(OCC(=O)Nc4ccc(OC)c(OC)c4)no3)nc2n(CCC)c1=O` [AS76, 1,3-di-n-propyl-8-{3-[(3,4-dimethoxy-phenylcarbamoyl)-methoxy]-isoxazol-5-yl}-xanthine] was tested. Which Ki [1] did it give?
**A.** Its Ki is > 1 µM.

**Q.** And the Ki [2]?
**A.** Its Ki is 0.051 µM.

**Q.** What about the Ki [3] of the same compound?
**A.** The Ki was > 1 µM.

**Q.** `CCCn1c(=O)c2[nH]c(-c3cc(C(=O)O)n(C)n3)nc2n(CCC)c1=O` [AS1, 1,3-di-n-propyl-8-(1-methyl-5-carboxy-1-H-pyrazol-3-yl)-xanthine] was tested. Which Ki [1] did it give?
**A.** The Ki was > 1 µM.

**Q.** What about the Ki [2] of the same compound?
**A.** The Ki was > 1 µM.

**Q.** And the Ki [3]?
**A.** The Ki was > 1 µM.

**Q.** `CCCn1c(=O)c2[nH]c(-c3cc(OCC(=O)Nc4ccc(OC)c(OC)c4)nn3C)nc2n(CCC)c1=O` [AS101, 1,3-di-n-propyl-8-{5-[(3,4-dimethoxy-phenylcarbamoyl)-methoxy]-2-methyl-2H-pyrazole-3-yl}-xanthine] was tested. Which Ki [1] did it give?
**A.** The Ki was > 1 µM.

**Q.** And the Ki [2]?
**A.** Its Ki is 0.012 µM.

**Q.** What about the Ki [3] of the same compound?
**A.** The Ki was > 1 µM.

**Q.** Which results are given for `CCCn1c(=O)c2[nH]c(-c3cc(NC(=O)[C@H](C)c4ccccc4)nn3C)nc2n(CCC)c1=O` [AS19, (2R)-N-[5-(2,6-dioxo-1,3-dipropyl-2,3,6,7-tetrahydro-1H-purin-8-yl)-1-methyl-1H-pyrazol-3-yl]-2-phenylpropanamide]?
**A.** Ki [1]: > 1 µM; Ki [2]: > 1 µM; Ki [3]: > 1 µM

**Q.** `CCCn1c(=O)c2[nH]c(-c3cc(OCC(=O)N4CCN(c5ccc(F)cc5)CC4)nn3C)nc2n(CCC)c1=O` [AS72, 8-(5-{2-[4-(4-Fluoro-phenyl)-piperazin-1-yl]-2-oxo-ethoxy}-2-methyl-2H-pyrazol-3-yl)-1,3-dipropyl-3,7-dihydro-purine-2,6-dione] was tested. Which Ki [1] did it give?
**A.** Its Ki is > 1 µM.

**Q.** What about the Ki [2] of the same compound?
**A.** Its Ki is 0.055 µM.

**Q.** What about the Ki [3] of the same compound?
**A.** The Ki was > 1 µM.

**Q.** What does the source list for `CCCn1c(=O)c2[nH]c(-c3cc(OCC(=O)Nc4ccc(C(=O)O)cc4)nn3C)nc2n(CCC)c1=O` [AS95, 1,3-di-n-propyl-8-{5-[(4-carboxy-phenylcarbamoyl)-methoxy]-2-methyl-2H-pyrazole-3-yl}-xanthine]?
**A.** Ki [1]: > 1 µM; Ki [2]: 0.036 µM; Ki [3]: > 1 µM

**Q.** Which Ki [1] does the source give for `CCCn1c(=O)c2[nH]c(-c3cc(NC(=O)Cc4ccc(N(C)C)cc4)nn3C)nc2n(CCC)c1=O` [AS26, N-[5-(2,6-dioxo-1,3-dipropyl-2,3,6,9-tetrahydro-1H-purin-8-yl)-1-methyl-1H-pyrazol-3-yl]-2-[4-(N,N-dimethylamino)phenyl]acetamide] here?
**A.** The Ki was > 1 µM.

**Q.** And the Ki [2]?
**A.** The Ki was 1.63 µM.

**Q.** What about the Ki [3] of the same compound?
**A.** The Ki was > 1 µM.

**Q.** `CCCn1c(=O)c2[nH]c(-c3cc(OCC(=O)Nc4ccc(F)cc4)no3)nc2n(CCC)c1=O` [AS73, 1,3-di-n-propyl-8-{3-[(4-fluoro-phenylcarbamoyl)-methoxy]-isoxazol-5-yl}-xanthine] was tested. Which Ki [1] did it give?
**A.** The Ki was > 1 µM.

**Q.** And the Ki [2]?
**A.** The Ki was 0.07 µM.

**Q.** And the Ki [3]?
**A.** The Ki was > 1 µM.

**Q.** `CCCn1c(=O)c2[nH]c(-c3cc(OCC(=O)Nc4ccc(OC)cc4)no3)nc2n(CCC)c1=O` [AS75, 1,3-di-n-propyl-8-{3-[(4-methoxy-phenylcarbamoyl)-methoxy]-isoxazol-5-yl}-xanthine] was tested. Which Ki [1] did it give?
**A.** The Ki was > 1 µM.

**Q.** And the Ki [2]?
**A.** The Ki was 0.053 µM.

**Q.** And the Ki [3]?
**A.** Its Ki is > 1 µM.

**Q.** For `C=CCn1c(=O)c2[nH]c(-c3cc(OCC(=O)N4CCN(c5ccccc5)CC4)nn3C)nc2n(CC=C)c1=O` [AS96, 1,3-di-allyl-8-{5-[2-oxo-2-(4-phenyl-piperazin-1-yl)-ethoxy]-2-methyl-2H-pyrazole-3-yl}-xanthine], which Ki [1] is on record?
**A.** The Ki was > 1 µM.

**Q.** And the Ki [2]?
**A.** The Ki was 0.024 µM.

**Q.** And the Ki [3]?
**A.** Its Ki is > 1 µM.

**Q.** Which Ki [1] does the source give for `CCCn1c(=O)c2[nH]c(-c3cc(NC(=O)CCC(=O)O)nn3C)nc2n(CCC)c1=O` [AS8, 4-{[5-(1,3-dipropyl-2,6-dioxo-2,3,6,7-tetrahydro-1H-purin-8-yl)-1-methyl-1H-pyrazol-3-yl]amino}-4-oxobutanoic acid] here?
**A.** The Ki was > 1 µM.

**Q.** What about the Ki [2] of the same compound?
**A.** The Ki was > 1 µM.

**Q.** What about the Ki [3] of the same compound?
**A.** The Ki was > 1 µM.

**Q.** `CCCn1c(=O)c2[nH]c(-c3cc(NC(=O)[C@@H](C)c4ccccc4)nn3C)nc2n(CCC)c1=O` [AS18, (2S)-N-[5-(2,6-dioxo-1,3-dipropyl-2,3,6,7-tetrahydro-1H-purin-8-yl)-1-methyl-1H-pyrazol-3-yl]-2-phenylpropanamide] was tested. Which Ki [1] did it give?
**A.** The Ki was > 1 µM.

**Q.** And the Ki [2]?
**A.** Its Ki is > 1 µM.

**Q.** And the Ki [3]?
**A.** Its Ki is > 1 µM.
